Measured values from ChEMBL document CHEMBL3244182, “Potential bis-alkylating agents for cancer chemotherapy. Approaches to the synthesis of 2-sulfonyl-1,4-bis(methanesulfonoxy)butanes” (1978).
Values after ≈ are worked out from the molar mass of the structure shown. Active and inactive are the calls of the source. The rule behind the calls is not given here.

Experiments:
L1210 [1] = test: In vivo antitumor activity against mouse L1210 cells allografted in BDF1 mouse at 200 mg/kg, ip administered as nine doses as suspension in saline with Tween 80; type: functional, organism-based; set-up: dose 200 mg/kg
KB = test: In vitro antitumor activity against human KB cells treated as an alcoholic solution; type: functional; details: read-out: ED50 (the source's name)
L1210 [2] = test: In vivo antitumor activity against mouse L1210 cells allografted in BDF1 mouse at 400 mg/kg, ip administered as three doses as suspension in klucel; type: functional, organism-based; set-up: dose 400 mg/kg
P388 [3] = test: In vivo antitumor activity against mouse P388 cells allografted in BDF1 mouse at 400 mg/kg, ip administered as three doses as suspension in klucel; type: functional, organism-based; set-up: dose 400 mg/kg
L1210 [4] = test: In vivo antitumor activity against mouse L1210 cells allografted in BDF1 mouse at 400 mg/kg, ip administered as single dose as suspension in saline; type: functional, organism-based; set-up: dose 400 mg/kg
L1210 [5] = test: In vivo antitumor activity against mouse L1210 cells allografted in BDF1 mouse at 400 mg/kg, ip administered as single dose as suspension in CMC; type: functional, organism-based; set-up: dose 400 mg/kg
L1210 [6] = test: In vivo antitumor activity against mouse L1210 cells allografted in BDF1 mouse at 400 mg/kg, ip administered as nine doses as suspension in klucel; type: functional, organism-based; set-up: dose 400 mg/kg
P388 [7] = test: In vivo antitumor activity against mouse P388 cells allografted in CDF1 mouse at 200 mg/kg, ip administered as nine doses as suspension in klucel; type: functional, organism-based; set-up: dose 200 mg/kg

SMILES: CS(=O)(=O)OCCC(COS(C)(=O)=O)S(=O)(=O)CCCOc1ccccc1-c1ccccc1 (racemic)
- Activity (L1210 [1]): inactive

SMILES: CCCCCCCCCCCS(=O)(=O)C(CCOS(C)(=O)=O)COS(C)(=O)=O (racemic)
- EC50 (KB): 31 µg/mL (≈ 66.7 µM)
- Activity (L1210 [2]): inactive
- Activity (P388 [3]): inactive

SMILES: CCCCS(=O)(=O)C(CCOS(C)(=O)=O)COS(C)(=O)=O (racemic)
- Activity (L1210 [4]): inactive

SMILES: CS(=O)(=O)OCCC(COS(C)(=O)=O)S(=O)(=O)Cc1ccccc1 (racemic)
- Activity (L1210 [4]): inactive

SMILES: CS(=O)(=O)OCCC(COS(C)(=O)=O)S(=O)(=O)c1ccccc1 (racemic)
- Activity (L1210 [5]): inactive

SMILES: COc1ccc(OCCS(=O)(=O)C(CCOS(C)(=O)=O)COS(C)(=O)=O)cc1 (racemic)
- Activity (L1210 [6]): inactive

SMILES: COc1ccccc1C(=O)Nc1cc2c(cc1N1CCNCC1C)n(C)c(=O)n2C (racemic)
- Activity (P388 [7]): inactive
